Experimental data as given in patent US20240238445A1, “INHIBITORS AND USES THEREOF” (NEURACLE SCIENCE CO., LTD., priority 2021, published 2024).
Each block holds one molecule with its values, some of them ahead of it. Square brackets hold non-standard residues; d marks the D form. Ends that are not written are not given here.

How the values were obtained:
[1] = molecular target: interaction between Fc conjugated LRRC4B (amino acids 453-576) protein fragment and FAM19A5 protein (Homo sapiens, UniProt Q7Z5A7); assay: Competitive inhibition assay of chemical compounds, plate coated with Fc conjugated LRRC4B fragment (453-576); format: binding; conditions: for effect of increasing concentration on LRRC4B-FAM19A5 interaction (in words): increasing concentrations
interaction between Fc conjugated LRRC4B (amino acids 453-576) protein fragment and FAM19A5 protein, sequence (Q7Z5A7 44-132): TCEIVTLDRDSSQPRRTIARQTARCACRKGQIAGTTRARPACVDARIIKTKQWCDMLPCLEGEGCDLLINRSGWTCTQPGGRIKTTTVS
Description: In particular, the following compounds were produced: (1) KB734, (2) KB761, (3) KB763, (4) KB1157, (5) KB1161, (6) KB1542, (7) KB1543, (8) KB2256, (9) KB2258, (10) KB2310, (11) KB2357, (12) KB2718, (13) KB2719, (14) KB3111, (15) KB3112, (16) KB3220, (17) KB3201, (18) KB3250, and (19) KB3251. Then, the ability of the above chemical compounds to inhibit the binding of LRRC4 protein family members to FAM19A5 protein was assessed using a competitive inhibition assay. Briefly, ELISA plates were coated with 100 nM of a Fc conjugated LRRC4B fragment (amino acids 453-576 of SEQ ID NO: 2; SEQ ID NO: 7). Then, recombinant FAM19A5 protein (1 ng/mL) was added to the plates in combination with one of the above chemical compounds (100 μM). Recombinant FAM19A5 protein alone (“CTRL”) or in combination with DMSO was used as control. The plates were incubated at 37° C. and then, the amount of FAM19A5 protein bound to the coated LRRC4B protein fragment was assessed using HRP-conjugated anti-FAM19A5 (1-65) antibody.
Next, to assess whether increasing the concentration of the chemical compounds could improve the inhibitory effect, increasing concentrations of KB734, KB2310, and KB2357 compounds were subjected to the same competitive inhibition assay described above.
To further assess the inhibitory effect of the KB2357 chemical compound on FAM19A5 protein and members of the LRRC4 protein family, the following derivatives of the KB2357 compound were synthesized as described earlier: (1) KB2304, (2) KB2305, (3) KB2308, (4) KB2309, (5) KB2314, (6) KB2315, (7) KB2324, (8) KB2325, (9) KB2328, (10) KB2329, (11) KB2336, (12) KB2337, (13) KB2350, (14) KB2356, (15) KB2358, (16) KB2359, (17) KB2369, (18) KB2372, and (19) KB2399. The derivative compounds were also tested in the competitive inhibition assay as described above.

[2] = molecular target: interaction between His-TEV LRRC4B and rFAM19A5 (Homo sapiens, UniProt Q7Z5A7); assay: Competitive inhibition assay (IC50), plate coated with His-TEV LRRC4B; format: binding; conditions: for IC50: Table 15, His-TEV LRRC4B 100 nM coat, peptide 0.3-10000 nM, read-out: IC50 (nM), Inhibition on Complex Formulation between LRRC4B protein and recombinant FAM19A5 protein (1 ng/ml)
Description: To further assess the inhibitory effect of the FB-21 mutants, the ability of additional FB-21 mutants described in Example 9 were tested for their ability to inhibit the interaction between FAM19A5 protein and LRRC4B protein. Briefly, plates were coated with 100 nM of His-TEV LRRC4B and then 1 ng/mL of rFAM19A5 was incubated at 37° C. in the presence of increasing concentrations of the FB-21 peptide fragments (0.3, 1, 3, 10, 30, 100, 300, 1000, 3000 and 10000 nM). The LRRC4B-bound FAM19A5 levels were measured using HRP-conjugated 1-65 SS01 antibody. As shown in FIG. 22B (see Table 15 for IC50), most (if not all) of the FB-21 mutants had improved ability in inhibiting the interaction between LRRC4B and recombinant FAM19A5 protein.
Next, to assess whether other properties of the polypeptides described herein can be improved (e.g., solubility, prevention of degradation from protease and peptidase, and in vivo administration), the following additional FB-21 peptide mutants were constructed and tested for their ability to inhibit the interaction between FAM19A5 protein and LRRC4B: (1) d-form FB-21 peptide (“dFB-21”), (2) d-form FB-21 peptide with juxta-membrane (JM) sequence (“dFB-JM-31”), (3) d-form FB-21 peptide with BBB penetrating sequence at each end of the sequence (“dFB-BBB-39”), and (4) d-form FB-21 mutant peptide with DY replacement and additional JM sequence (“dFB-DY-JM31”). The sequence for d-form FB-21 peptide is set forth in SEQ ID NO: 153 (nYTYFTTVTVETLETQPGEEa; wherein the lowercase amino acids represent D-form of the amino acid, and the uppercase amino acids represent L-form of the amino acid). The sequence for dFB-BBB-39 is set forth in SEQ ID NO: 154 (n[…]l; wherein the lowercase amino acids represent D-form of the amino acid, and the uppercase amino acids represent L-form of the amino acid). The sequence for dFB-JM-31 is set forth in SEQ ID NO: 155 (n[…]a; wherein the lowercase amino acids represent D-form of the amino acid, and the uppercase amino acids represent L-form of the amino acid). The sequence for dFB-DY-JM31 is set forth in SEQ ID NO: 156 (n[…]a; wherein the lowercase amino acids represent D-form of the amino acid, and the uppercase amino acids represent L-form of the amino acid). The overall experimental methods were the same as those described immediately above.

[3] = molecular target: hFc-fused hLRRC4B and FAM19A5 complex formation (Homo sapiens, UniProt Q7Z5A7); assay: Competitive inhibition assay (IC50), plate coated with LRRC4B(453-576, TT/TT)-hFc; format: binding; conditions: for IC50: Table 14, LRRC4B(453-576, TT/TT)-hFc 100 nM coat, peptide 0.03-1000 nM, read-out: IC50 (nM), Inhibition on Complex Formulation between human LRRC4B protein and recombinant FAM19A5 protein (1 ng/mL)
Description: The in silico analysis provided in Example 9 highlighted that certain T12 and L13 double mutants might be important in improving the binding affinity of the polypeptides of the present disclosure to the FAM19A5 protein. Therefore, the ability of both the wild-type FB-21 peptide (which is the same as the FB-20 peptide described herein except that the FB-21 peptide additionally contains an alanine at the C-terminus) and several FB-21 mutants were tested for their inhibitor effect on hFc-fused hLRRC4B and FAM19A5 complex formation. Briefly, plate was coated with 100 nM of LRRC4B(453-576, TT/TT)-hFc and then 1 ng/ml of rFAM19A5 was incubated at 37° C. in the presence of increasing concentrations of the different FB-21 peptide fragments (0.03, 0.1, 0.3, 1, 3, 10, 30, 100, 300 and 1000 nM). The LRRC4B-bound FAM19A5 levels were measured using HRP-conjugated 1-65 antibody.

FAM19A5 protein [4] = molecular target: T1, FAM19A5 protein (Homo sapiens, UniProt Q7Z5A7); assay: competitive inhibition ELISA, 20 nM peptide, rFAM19A5 5 ng/mL; competitor: coated LRRC4B(36-576)-hFc
FAM19A5 protein [5] = molecular target: T1, FAM19A5 protein; assay: competitive inhibition ELISA, 20 nM peptide, rFAM19A5 1 ng/mL; competitor: coated LRRC4B(453-576)-hFc
FAM19A5 protein [6] = molecular target: T1, FAM19A5 protein; assay: competitive inhibition ELISA; competitor: coated LRRC4B(36-576)-hFc
FAM19A5 protein [7] = molecular target: T1, FAM19A5 protein; assay: competitive inhibition ELISA; competitor: coated LRRC4B(453-576)-hFc
FAM19A5 protein [8] = molecular target: T1, FAM19A5 protein; assay: competitive inhibition ELISA, 20 nM peptide, rFAM19A5 5 ng/mL; competitor: coated LRRC4B(36-576)-hFc; remark: listed apart in the source
FAM19A5 protein [9] = molecular target: T1, FAM19A5 protein; assay: competitive inhibition ELISA, 20 nM peptide, rFAM19A5 1 ng/mL; competitor: coated LRRC4B(453-576)-hFc; remark: listed apart in the source

Molecule: CCCCCC(O)/C=C\c1ccc(O)c(OC)c1 (stereo not shown) [KB2356, (Z)-4-(3-Hydroxyoct-1-en-1-yl)-2-methoxyphenol]
effect of increasing concentration on LRRC4B-FAM19A5 interaction (in words) [1]: able to reduce the interaction in a dose-dependent manner

reduction of interaction between FAM19A5 and the coated LRRC4B protein fragment compared to the controls ([1]; 100 μM compound, FAM19A5 1 ng/mL): about 10%
effect of increasing concentration on LRRC4B-FAM19A5 interaction (in words) [1]: greater reduction in the interaction
Molecule: CCCCC[C@@H](O)C#Cc1ccc(O)c(OC)c1 [KB2357, (R)-4-(3-Hydroxyoct-1-yn-1-yl)-2-methoxyphenol]

Molecule: CCCCC[C@H](O)C#Cc1ccc(O)c(OC)c1 [KB2358, (S)-4-(3-Hydroxyoct-1-yn-1-yl)-2-methoxyphenol]
effect of increasing concentration on LRRC4B-FAM19A5 interaction (in words) [1]: able to reduce the interaction in a dose-dependent manner

fold more effective in dissociating LRRC4B-FAM19A5 complex formation compared to FB-21 ([2]; from IC50 of Table 15): 2.4 fold
fold more effective in dissociating LRRC4B-FAM19A5 complex formation compared to FB-21 (W12Y13) ([2]; from IC50 of Table 15): 7 fold
Molecule: GYTYFTTVTVEDYETQPGEE [FB-21 (D12Y13)]

IC50 [3]: 11.9 nM
IC50 [2]: 138 nM
Molecule: GYTYFTTVTVETLETQPGEEA [FB-21 (wild-type)]

IC50 [3]: 4.1 nM
increase in ability to dissociate the LRRC4B-FAM19A5 complex compared with wild-type FB-21 ([3]; from IC50 of Table 14): 2.9 folds
IC50 [2]: 46.7 nM
Molecule: GYTYFTTVTVEWYETQPGEEA [FB-21 (W12Y13)]

fold more effective in inhibiting complex formation compared to the wild-type FB-21 ([2]; FIG. 22C, D-form amino acids at both termini): 4 fold
Molecule: nYTYFTTVTVEDYETQPGEEALDEVMKTTKa ([dN]YTYFTTVTVEDYETQPGEEALDEVMKTTK[dA]; also: terminal modifications n and a on first and last residues) [dFB-DY-JM31]

Inhibition rate (%) (FAM19A5 protein [4]): 65.7%
Inhibition rate (%) (FAM19A5 protein [5]): 40.4%
Molecule: NFSYFSTVTVETMEPSQDERTTR [FBC4C-23]

Inhibition rate (%) (FAM19A5 protein [6]): 77%
Inhibition rate (%) (FAM19A5 protein [7]): 63.2%
Inhibition rate (%) (FAM19A5 protein [4]): 77%
Inhibition rate (%) (FAM19A5 protein [8]): 84.3%
Inhibition rate (%) (FAM19A5 protein [5]): 63.2%
Inhibition rate (%) (FAM19A5 protein [9]): 62%
Molecule: GYTYFTTVTVETLETQPGEE [FB-20]

Inhibition rate (%) (FAM19A5 protein [4]): 64.1%
Inhibition rate (%) (FAM19A5 protein [5]): 40.4%
Molecule: NYSFFTTVTVETTEISPEDTTRK [FBC4-23]
